Test results taken from PubChem BioAssay AID248 (DTP/NCI, 2004).
Values joined by “and” are separate entries in the source; they are usually repeats but may differ in a detail not shown here. Equal values may be shown once. Inconclusive results and toxic doses are left out. Cut-off read from the data, not from the text of the source: active = T/C of 150% or more; inactive = T/C below 125%. Peptide text beside a SMILES is read from it. * marks the point of attachment. Cbz = O=C(OCc1ccccc1)*

System: L1210 leukemia ip in BDF1 mice, survival T/C
Test: NCI In Vivo Anticancer Drug Screen. Data for tumor model L1210 Leukemia (intraperitoneal) in B6D2F1 (BDF1) mice
Conditions: endpoint: mean survival time, higher = longer survival
Procedure, shortened: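 Read-out is survival time, reported as the treated-group measurement over the vehicle-control measurement.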

[1] = dose: 100.0 mg/kg/injection, schedule: Q01DX009 (ip), vehicle: Klucel (hydroxypropylcellulose) (HPC)
[2] = dose: 400.0 mg/kg/injection, schedule: Q01DX001 (ip), vehicle: saline
[3] = dose: 100.0 mg/kg/injection, schedule: Q01DX001 (ip), vehicle: saline with Tween-80
[4] = dose: 200.0 mg/kg/injection, schedule: Q01DX001 (ip), vehicle: saline with Tween-80
[5] = dose: 400.0 mg/kg/injection, schedule: Q01DX001 (ip), vehicle: saline with Tween-80
[6] = dose: 50.0 mg/kg/injection, schedule: Q01DX009 (ip), vehicle: saline with Tween-80
[7] = dose: 100.0 mg/kg/injection, schedule: Q01DX009 (ip), vehicle: saline with Tween-80
[8] = dose: 200.0 mg/kg/injection, schedule: Q01DX009 (ip), vehicle: saline with Tween-80
[9] = dose: 400.0 mg/kg/injection, schedule: Q01DX001 (ip), vehicle: carboxymethylcellulose (CMC)
[10] = dose: 100.0 mg/kg/injection, schedule: Q01DX001 (ip), vehicle: saline
[11] = dose: 200.0 mg/kg/injection, schedule: Q01DX001 (ip), vehicle: saline
[12] = dose: 100.0 mg/kg/injection, schedule: Q04DX003 (ip), vehicle: Klucel (hydroxypropylcellulose) (HPC)
[13] = dose: 200.0 mg/kg/injection, schedule: Q01DX009 (ip), vehicle: Klucel (hydroxypropylcellulose) (HPC)
[14] = dose: 200.0 mg/kg/injection, schedule: Q04DX003 (ip), vehicle: Klucel (hydroxypropylcellulose) (HPC)
[15] = dose: 400.0 mg/kg/injection, schedule: Q01DX009 (ip), vehicle: Klucel (hydroxypropylcellulose) (HPC)
[16] = dose: 400.0 mg/kg/injection, schedule: Q04DX003 (ip), vehicle: Klucel (hydroxypropylcellulose) (HPC)
[17] = dose: 100.0 mg/kg/injection, schedule: Q04DX003 (ip), vehicle: saline with Tween-80
[18] = dose: 200.0 mg/kg/injection, schedule: Q04DX003 (ip), vehicle: saline with Tween-80
[19] = dose: 400.0 mg/kg/injection, schedule: Q04DX003 (ip), vehicle: saline with Tween-80

Measured: T/C

Cc1nc2[nH]c(=S)[nH]c(=O)c2nc1C
inactive: dose: 16.0 mg/kg/injection, schedule: Q01DX Z (ip), vehicle: methylcellulose (MC) 95 % of control | dose: 31.0 mg/kg/injection, schedule: Q01DX Z (ip), vehicle: methylcellulose (MC) 119 % of control | dose: 62.0 mg/kg/injection, schedule: Q01DX Z (ip), vehicle: methylcellulose (MC) 89 % of control | dose: 125.0 mg/kg/injection, schedule: Q01DX Z (ip), vehicle: methylcellulose (MC) 95 % of control and 101 % of control | dose: 250.0 mg/kg/injection, schedule: Q01DX Z (ip), vehicle: methylcellulose (MC) 112 % of control | dose: 500.0 mg/kg/injection, schedule: Q01DX Z (ip), vehicle: methylcellulose (MC) 89 % of control

CCCCCCCCCCCCCCCCCC(=O)NCC#CCN1CCCC1
inactive: dose: 5.0 mg/kg/injection, schedule: Q01DX001 (ip), vehicle: saline 97 % of control | dose: 10.0 mg/kg/injection, schedule: Q01DX001 (ip), vehicle: saline 94 % of control | dose: 20.0 mg/kg/injection, schedule: Q01DX001 (ip), vehicle: saline 100 % of control | dose: 25.0 mg/kg/injection, schedule: Q01DX009 (ip), vehicle: Klucel (hydroxypropylcellulose) (HPC) 96 % of control | dose: 40.0 mg/kg/injection, schedule: Q01DX001 (ip), vehicle: saline 105 % of control | dose: 50.0 mg/kg/injection, schedule: Q01DX009 (ip), vehicle: Klucel (hydroxypropylcellulose) (HPC) 95 % of control | dose: 80.0 mg/kg/injection, schedule: Q01DX001 (ip), vehicle: saline 94 % of control | [1] 90 % of control | [2] 104 % of control

COC(=O)c1ccc(N(C)C/C(CNc2nc(NC(C)=O)nc(SCc3ccccc3)c2[N+](=O)[O-])=N/O)cc1
inactive: [3] 92 % of control | [4] 86 % of control | [5] 96 % of control

COC(=O)c1c(C(=O)O)coc1C(=O)N1CCCC1
inactive: dose: 75.0 mg/kg/injection, schedule: Q04DX003 (ip), vehicle: Klucel (hydroxypropylcellulose) (HPC) 105 % of control | dose: 100.0 mg/kg/injection, schedule: Q01DX001 (ip), vehicle: Klucel (hydroxypropylcellulose) (HPC) 100 % of control | dose: 150.0 mg/kg/injection, schedule: Q04DX003 (ip), vehicle: Klucel (hydroxypropylcellulose) (HPC) 89 % of control | dose: 200.0 mg/kg/injection, schedule: Q01DX001 (ip), vehicle: Klucel (hydroxypropylcellulose) (HPC) 97 % of control | dose: 300.0 mg/kg/injection, schedule: Q04DX003 (ip), vehicle: Klucel (hydroxypropylcellulose) (HPC) 91 % of control | dose: 400.0 mg/kg/injection, schedule: Q01DX001 (ip), vehicle: Klucel (hydroxypropylcellulose) (HPC) 105 % of control

COc1cccc(/C=N/N=C(N)N)c1
inactive: dose: 15.0 mg/kg/injection, schedule: Q01DX Z (ip), vehicle: saline 94 % of control | dose: 30.0 mg/kg/injection, schedule: Q01DX Z (ip), vehicle: saline 97 % of control | dose: 30.0 mg/kg/injection, schedule: Q01DX Z (oral), vehicle: saline 104 % of control | dose: 60.0 mg/kg/injection, schedule: Q01DX Z (ip), vehicle: saline 92 % of control | dose: 60.0 mg/kg/injection, schedule: Q01DX Z (oral), vehicle: saline 104 % of control | dose: 120.0 mg/kg/injection, schedule: Q01DX Z (oral), vehicle: saline 101 % of control

Cc1nc2ccc(Cl)c(Cl)c2s1
inactive: [3] 106 % of control | [4] 104 % of control | [5] 100 % of control

O=C(/C=C\C=C\c1ccc2c(c1)OCO2)N1CCCCC1
inactive: [6] 105 % of control | [7] 105 % of control | [8] 105 % of control

CN(C(=O)N(CCCl)N=O)c1ccccc1
inactive: dose: 100.0 mg/kg/injection, schedule: Q01DX001 (ip), vehicle: carboxymethylcellulose (CMC) 104 % of control | dose: 200.0 mg/kg/injection, schedule: Q01DX001 (ip), vehicle: carboxymethylcellulose (CMC) 104 % of control | [9] 105 % of control

COC(=O)C(CC(C)C)NC(=O)C(Cc1ccccc1)NC(=O)OCc1ccccc1 (stereo not drawn) (Cbz-Phe-Leu-OMe; configuration not given here)
inactive: [10] 98 % of control | [11] 93 % of control | [2] 91 % of control

O=[N+]([O-])c1cccc(S(=O)(=O)N2CCN(S(=O)(=O)c3cccc([N+](=O)[O-])c3)C2)c1
inactive: [1] 95 % of control | [12] 97 % of control | [13] 103 % of control | [14] 93 % of control | [15] 97 % of control | [16] 97 % of control

CC1=CC(C)(C)NC(=S)N1c1ccccc1
inactive: [12] 103 % of control | [13] 86 % of control | [14] 103 % of control | [15] 87 % of control | [16] 101 % of control

CCCNC(=O)NC1CCCCC1
inactive: dose: 264.0 mg/kg/injection, schedule: Q01DX001 (ip), vehicle: carboxymethylcellulose (CMC) 101 % of control | [9] 90 % of control | dose: 600.0 mg/kg/injection, schedule: Q01DX001 (ip), vehicle: carboxymethylcellulose (CMC) 98 % of control

CCCCCC(C)NCC(C)(C)O (configuration not stated)
inactive: dose: 75.0 mg/kg/injection, schedule: Q01DX001 (ip), vehicle: acid diluted with saline 102 % of control

CSc1ncnc2c1cnn2C1OC(CCC#N)C(O)C1O (configuration not stated)
inactive: [10] 97 % of control | [11] 98 % of control

NC(=O)c1cn[nH]c1/N=N/N1CCCC1C(=O)O (configuration not stated)
inactive: [3] 100 % of control | [7] 111 % of control | [17] 104 % of control | [4] 107 % of control | [8] 97 % of control | [18] 104 % of control | [5] 102 % of control | dose: 400.0 mg/kg/injection, schedule: Q01DX009 (ip), vehicle: saline with Tween-80 94 % of control | [19] 106 % of control

C=C1C(C)=NN=C2C=CN(C(=O)CI)N12
inactive: [10] 109 % of control | [11] 106 % of control | [2] 106 % of control

CCOC(=O)C(C(=O)c1ccccc1)c1cc(NS(=O)(=O)c2ccccc2)ccc1O (configuration not stated)
inactive: dose: 12.5 mg/kg/injection, schedule: Q01DX009 (ip), vehicle: saline with Tween-80 90 % of control | dose: 25.0 mg/kg/injection, schedule: Q01DX009 (ip), vehicle: saline with Tween-80 95 % of control | [6] 94 % of control and 97 % of control | [7] 86 % of control | [17] 91 % of control | [8] 86 % of control

CN1CCC(O)(c2ccccc2)C(C(=O)c2ccccc2)C1 (configuration not stated)
inactive: [10] 101 % of control | [11] 93 % of control

CC(C)(C)OC1C2C=CC1C1C2C(C)(C)C1(C)C (configuration not stated)
inactive: [3] 90 % of control | [4] 90 % of control

C#CCN(C)CCO
inactive: [17] 97 % of control | [18] 106 % of control | [19] 100 % of control

O=C(O)C1CC(c2ccc(Cl)cc2)OC1=O (configuration not stated)
inactive: dose: 100.0 mg/kg/injection, schedule: Q04DX003 (ip), vehicle: saline 101 % of control | dose: 200.0 mg/kg/injection, schedule: Q04DX003 (ip), vehicle: saline 104 % of control | dose: 400.0 mg/kg/injection, schedule: Q04DX003 (ip), vehicle: saline 101 % of control
